Read-outs that look alike come from different tables or passages of the source.
Key:
[1] = biological target: human orexin-1 receptor (Homo sapiens (Human), UniProt O43613); experiment: In vitro assay: intracellular calcium measurements (FLIPR), antagonistic activity; assay type: cell-based; details: CHO cells, 3 nM orexin-A, marked values are geometric means of n = 2-6, read-out: IC50 OX1
Method: (§1) In Vitro Assay: Intracellular Calcium Measurements:
(§2) Chinese hamster ovary (CHO) cells expressing the human orexin-1 receptor and the human orexin-2 receptor, respectively, are grown in culture medium (Ham F-12 with L-Glutamine) containing 300 µg/ml G418, 100 U/ml penicillin, 100 µg/ml streptomycin and 10% heat inactivated fetal calf serum (FCS). The cells are seeded at 20,000 cells/well into 384-well black clear bottom sterile plates (Greiner). The seeded plates are incubated overnight at 37° C. in 5% CO2.
(§3) Fluorescence is measured for each well at 1 second intervals, and the height of each fluorescence peak is compared to the height of the fluorescence peak induced by 3 nM orexin-A with vehicle in place of antagonist. […] Optimized conditions were achieved by adjustment of pipetting speed and cell splitting regime. The calculated IC50 values may fluctuate depending on the daily cellular assay performance. Fluctuations of this kind are known to those skilled in the art.

[2] = biological target: human orexin-2 receptor (Homo sapiens (Human), UniProt O43614); experiment: as above; assay type: cell-based; details: CHO cells, 3 nM orexin-A, marked values are geometric means of n = 2-6, read-out: IC50 OX2
Chain of human orexin-2 receptor (O43614 whole entry): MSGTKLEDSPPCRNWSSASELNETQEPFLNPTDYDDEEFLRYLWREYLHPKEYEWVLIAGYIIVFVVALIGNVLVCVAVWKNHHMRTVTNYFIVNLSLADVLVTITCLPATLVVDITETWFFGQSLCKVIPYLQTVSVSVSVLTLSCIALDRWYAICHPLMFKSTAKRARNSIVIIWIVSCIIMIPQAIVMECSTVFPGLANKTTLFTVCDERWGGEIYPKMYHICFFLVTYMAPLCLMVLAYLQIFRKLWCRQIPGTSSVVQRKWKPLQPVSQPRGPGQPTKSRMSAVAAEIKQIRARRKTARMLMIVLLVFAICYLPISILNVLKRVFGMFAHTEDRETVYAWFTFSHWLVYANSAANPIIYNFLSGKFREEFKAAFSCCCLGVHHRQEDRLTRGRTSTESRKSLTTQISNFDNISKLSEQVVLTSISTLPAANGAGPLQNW
Method: as §1, §2, §3

[3] = compound incubation time of 10 min

Chain of human orexin-1 receptor (O43613 whole entry): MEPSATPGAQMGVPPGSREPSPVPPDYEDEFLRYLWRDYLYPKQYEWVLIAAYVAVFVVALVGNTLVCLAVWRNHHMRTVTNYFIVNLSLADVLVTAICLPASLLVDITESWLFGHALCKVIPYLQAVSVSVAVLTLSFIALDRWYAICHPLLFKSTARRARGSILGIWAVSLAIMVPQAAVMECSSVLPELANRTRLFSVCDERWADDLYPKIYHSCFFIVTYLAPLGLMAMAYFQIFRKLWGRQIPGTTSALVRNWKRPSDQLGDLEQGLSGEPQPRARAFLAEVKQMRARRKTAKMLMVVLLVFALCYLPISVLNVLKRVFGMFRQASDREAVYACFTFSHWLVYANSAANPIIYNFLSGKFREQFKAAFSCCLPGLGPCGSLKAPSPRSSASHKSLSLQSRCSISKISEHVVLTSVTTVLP

| IC50 ([2]; compound incubation 120 min) [µM] | Structure (SMILES) | IC50 [1, 3] [µM] | IC50 [2, 3] [µM] | IC50 ([1]; compound incubation 120 min) [µM] |
| --- | --- | --- | --- | --- |
| – | COc1cccc(OC)c1C1CCCC(=O)N1Cc1cc2ccccc2n1C (stereo not drawn) [Example 247, 6-(2,6-dimethoxyphenyl)-1-((1-methyl-1H-indol-2-yl)methyl)piperidin-2-one] | 0.132 | 0.041 | – |
| 0.015 | CCOc1cccc(F)c1[C@@H]1C[C@H](Cl)C(=O)N1Cc1ccc(OC(F)(F)F)cc1 (racemic) [Example 343, rac-(3S*,5S*)-3-chloro-5-(2-ethoxy-6-fluorophenyl)-1-(4-(trifluoromethoxy)benzyl)pyrrolidin-2-one] | – | – | 0.603 |
| 5.01 | O=C1[C@H](O)C[C@@H](c2cccc3c2OCCO3)N1Cc1ccc(OC(F)(F)F)cc1 (racemic) [Example 295, rac-(3R*,5S*)-5-(2,3-dihydrobenzo[b][1,4]dioxin-5-yl)-3-hydroxy-1-(4-(trifluoromethoxy)benzyl)pyrrolidin-2-one] | – | – | 3.97 |
| 0.92 | COc1ccc(Cl)c(OC)c1[C@@H]1C[C@@H](O)C(=O)N1Cc1ccc(OC(F)(F)F)cc1 (racemic) [Example 314, rac-(3R*,5S*)-5-(3-chloro-2,6-dimethoxyphenyl)-3-hydroxy-1-(4-(trifluoromethoxy)benzyl)pyrrolidin-2-one] | – | – | 1.1 |
| – | COc1cccc(OC)c1C1CCCC(=O)N1Cc1ccc2sccc2c1 (stereo not drawn) [Example 250, 1-(benzo[b]thiophen-5-ylmethyl)-6-(2,6-dimethoxyphenyl)piperidin-2-one] | 0.204 | 0.14 | – |
| – | COc1cccc(OC)c1C1CCCC(=O)N1Cc1cc(OC(F)F)ccn1 (stereo not drawn) [Example 188, 1-((4-(difluoromethoxy)pyridin-2-yl)methyl)-6-(2,6-dimethoxyphenyl)piperidin-2-one] | 4.18 | 0.484 | – |
| – | COc1cccc(Cl)c1C1CCCC(=O)N1Cc1ccc(OC(F)(F)F)cc1 (stereo not drawn) [Example 221, 6-(2-chloro-6-methoxyphenyl)-1-(4-(trifluoromethoxy)benzyl)piperidin-2-one] | 4.88 | 0.154 | – |
| – | COc1cccc(OC)c1C1CCCC(=O)N1Cc1ccc(OC(F)(F)F)c(Cl)c1 (stereo not drawn) [Example 161, 1-(3-chloro-4-(trifluoromethoxy)benzyl)-6-(2,6-dimethoxyphenyl)piperidin-2-one] | 0.147 | 0.062 | – |
| 0.029 | COc1cccc(F)c1[C@@H]1C[C@@H](Cl)C(=O)N1Cc1ccc2oc3ccccc3c2c1 (racemic) [Example 396, rac-(3R*,5S*)-3-chloro-1-(dibenzo[b,d]furan-2-ylmethyl)-5-(2-fluoro-6-methoxyphenyl)pyrrolidin-2-one] | – | – | – |
| 0.077 | CC(C)Oc1cccc(F)c1[C@@H]1C[C@@H](O)C(=O)N1Cc1ccc(OC(F)(F)F)cc1 (racemic) [Example 394, rac-(3R*,5S*)-5-(2-fluoro-6-isopropoxyphenyl)-3-hydroxy-1-(4-(trifluoromethoxy)benzyl)pyrrolidin-2-one] | – | – | – |
| – | COc1cccc(F)c1C1CCCC(=O)N1Cc1ccc(OC(F)(F)F)cc1 (stereo not drawn) [Example 220, 6-(2-fluoro-6-methoxyphenyl)-1-(4-(trifluoromethoxy)benzyl)piperidin-2-one] | – | 0.156 | – |
| 0.405 | COc1c(F)ccc(F)c1[C@@H]1C[C@H](F)C(=O)N1Cc1ccc(OC(F)(F)F)cc1 (racemic) [Example 321, rac-(3S*,5S*)-5-(3,6-difluoro-2-methoxyphenyl)-3-fluoro-1-(4-(trifluoromethoxy)benzyl)pyrrolidin-2-one] | – | – | – |
| 0.065 | CCOc1cccc(F)c1C1CC(C)C(=O)N1Cc1ccc(OC(F)F)cc1 (stereo not drawn) [Example 373, 1-(4-(difluoromethoxy)benzyl)-5-(2-ethoxy-6-fluorophenyl)-3-methylpyrrolidin-2-one] | – | – | – |
| 0.03 | CCOc1cccc(F)c1C1CC(C)C(=O)N1Cc1ccc(OC(F)(F)F)cc1 (stereo not drawn) [Example 370, 5-(2-ethoxy-6-fluorophenyl)-3-methyl-1-(4-(trifluoromethoxy)benzyl)pyrrolidin-2-one] | – | – | – |
| 0.742 | COc1ccc(F)c(OC)c1[C@@H]1C[C@@H](O)C(=O)N1Cc1ccc(OC(F)(F)F)cc1 (racemic) [Example 311, rac-(3R*,5S*)-5-(3-fluoro-2,6-dimethoxyphenyl)-3-hydroxy-1-(4-(trifluoromethoxy)benzyl)pyrrolidin-2-one] | – | – | – |
| 0.005 | COc1cccc(F)c1[C@@H]1C[C@H](Cl)C(=O)N1Cc1ccc2oc3ccccc3c2c1 (racemic) [Example 408, rac-(3S*,5S*)-3-chloro-1-(dibenzo[b,d]furan-2-ylmethyl)-5-(2-fluoro-6-methoxyphenyl)pyrrolidin-2-one] | – | – | – |
| 2.21 | COc1cc(F)ccc1[C@@H]1C[C@@H](O)C(=O)N1Cc1ccc(OC(F)(F)F)cc1 (racemic) [Example 296, rac-(3R*,5S*)-5-(4-fluoro-2-methoxyphenyl)-3-hydroxy-1-(4-(trifluoromethoxy)benzyl)pyrrolidin-2-one] | – | – | – |
| 0.058 | CCOc1ccc(F)c(F)c1[C@@H]1C[C@@H](O)C(=O)N1Cc1ccc(OC(F)(F)F)cc1 (racemic) [Example 338, rac-(3R*,5S*)-5-(6-ethoxy-2,3-difluorophenyl)-3-hydroxy-1-(4-(trifluoromethoxy)benzyl)pyrrolidin-2-one] | – | – | – |
| 0.291 | CCCOc1cccc(F)c1C1CC(C)C(=O)N1Cc1ccc(OC(F)(F)F)cc1 (stereo not drawn) [Example 415, 5-(2-fluoro-6-propoxyphenyl)-3-methyl-1-(4-(trifluoromethoxy)benzyl)pyrrolidin-2-one] | – | – | – |
| 0.098 | CCOc1ccccc1[C@@H]1C[C@H](F)C(=O)N1Cc1ccc(OC(F)(F)F)cc1 (racemic) [Example 300, rac-(3S*,5S*)-5-(2-ethoxyphenyl)-3-fluoro-1-(4-(trifluoromethoxy)benzyl)pyrrolidin-2-one] | – | – | – |

| Structure (SMILES) | IC50 ([2]; compound incubation 120 min) [µM] | IC50 [1, 3] [µM] | IC50 [2, 3] [µM] | IC50 ([1]; compound incubation 120 min) [µM] |
| --- | --- | --- | --- | --- |
| Cc1nc(-c2cccc(CN3C(=O)CCCC3c3cccc4c3OCCO4)c2)cs1 (stereo not drawn) [Example 272, 6-(2,3-dihydrobenzo[b][1,4]dioxin-5-yl)-1-(3-(2-methylthiazol-4-yl)benzyl)piperidin-2-one] | 0.229 | – | – | 0.51 |
| O=C1CCCCC(c2ccccc2-c2cscn2)N1Cc1cccc(-c2nccs2)c1 (stereo not drawn) [Example 452, 1-(3-(thiazol-2-yl)benzyl)-7-(2-(thiazol-4-yl)phenyl)azepan-2-one] | 0.015 | – | – | 0.105 |
| COc1cccc(OC)c1C1CCC(=O)N1Cc1ccc(Oc2nccs2)cc1 (stereo not drawn) [Example 282, 5-(2,6-dimethoxyphenyl)-1-(4-(thiazol-2-yloxy)benzyl)pyrrolidin-2-one] | 0.213 | – | – | 0.139 |
| COc1ccc2c(c1C1CCCC(=O)N1Cc1cccc(-c3ncc(C)s3)c1)OCCO2 (stereo not drawn) [Example 444, 6-(6-methoxy-2,3-dihydrobenzo[b][1,4]dioxin-5-yl)-1-(3-(5-methylthiazol-2-yl)benzyl)piperidin-2-one] | 0.008 | – | – | 0.007 |
| COc1cccc(OC)c1C1CC(C)C(=O)N1Cc1ccnc(-c2ccccc2)c1 (stereo not drawn) [Example 139, 5-(2,6-dimethoxyphenyl)-3-methyl-1-((2-phenylpyridin-4-yl)methyl)pyrrolidin-2-one] | 0.172 | – | – | 0.035 |
| COc1cccc(OC)c1C1CC(C)C(=O)N1Cc1ccc(OC(C)C)cc1 (stereo not drawn) [Example 397, 5-(2,6-dimethoxyphenyl)-1-(4-isopropoxybenzyl)-3-methylpyrrolidin-2-one] | 0.37 | – | – | 0.265 |
| COc1ccc2ccccc2c1C1CCCC(=O)N1Cc1cccc(-c2ncccn2)c1 (stereo not drawn) [Example 445, 6-(2-methoxynaphthalen-1-yl)-1-(3-(pyrimidin-2-yl)benzyl)piperidin-2-one] | 0.09 | – | – | 0.021 |
| O=C1CCC(c2ccccc2-c2ccccc2)N1Cc1csc(-c2ccccc2)n1 (stereo not drawn) [Example 288, 5-([1,1′-biphenyl]-2-yl)-1-((2-phenylthiazol-4-yl)methyl)pyrrolidin-2-one] | 1.37 | – | – | 0.825 |
| COc1cccc(OC)c1C1CCCC(=O)N1Cc1cccc(N2CCCCC2)n1 (stereo not drawn) [Example 28, 6-(2,6-dimethoxyphenyl)-1-((6-(piperidin-1-yl)pyridin-2-yl)methyl)piperidin-2-one] | 0.011 | – | – | 0.021 |
| CC(C)Oc1cccc(F)c1C1CC(F)(F)C(=O)N1Cc1ccc(OC(F)(F)F)cc1 (stereo not drawn) [Example 411, 3,3-difluoro-5-(2-fluoro-6-isopropoxyphenyl)-1-(4-(trifluoromethoxy)benzyl)pyrrolidin-2-one] | 0.098 | – | – | 1.49 |
| COc1cccc(OC)c1C1CCCCC(=O)N1Cc1cncc(-c2ccccc2)c1 (stereo not drawn) [Example 92, 7-(2,6-dimethoxyphenyl)-1-((5-phenylpyridin-3-yl)methyl)azepan-2-one] | 0.455 | – | – | 1.06 |
| COc1cccc(OC)c1C1CC(C)C(=O)N1Cc1cccc(-n2cccn2)c1 (stereo not drawn) [Example 135, 1-(3-(1H-pyrazol-1-yl)benzyl)-5-(2,6-dimethoxyphenyl)-3-methylpyrrolidin-2-one] | 0.264 | – | – | 0.023 |
| COc1cccc(OC)c1C1CCCC(=O)N1Cc1cnc(OC(F)F)c(C)c1 (stereo not drawn) [Example 69, 1-((6-(difluoromethoxy)-5-methylpyridin-3-yl)methyl)-6-(2,6-dimethoxyphenyl)piperidin-2-one] | 0.077 | – | – | 0.247 |

Reference: US9242970B2 (ACTELION PHARMACEUTICALS LTD., priority 2010, dated 2016)
